We go through one molecule from patent US10716762B2, “Transmucosal administration system for a pharmaceutical drug” (LTS Lohmann Therapie-Systeme AG, priority 2012, dated 2020).

The conditions of series [1]: 536 patients, up to 360 mg t.i.d.; Thal et al., Neurology 61 (2003); cited from earlier work.
Series [2] in a line: First-pass metabolism of idebenone through the liver after oral administration. The series is classed as in vivo. The settings on record: after absorption in the gut. The source says: As a lipophilic compound idebenone is well absorbed in the gastrointestinal tract after conventional oral administration, which is the normal route for administering said compound. Dosage forms such as tablets or capsules have been used in clinical trials and as marketed product. In the course of our investigations on the pharmacological profile of idebenone, we discovered that the compound, after being absorbed in the gut, is metabolized very quickly during its first passage through the liver (“first-pass-effect”). […] Hepatic metabolism of idebenone results in side chain oxidation, reduction of the quinone ring, sulphate and glucuronide conjugation and subsequent renal excretion. The high liver metabolism greatly reduces the potentially high plasma levels of the pharmacologically active idebenone. Because of this strong first pass metabolism, oral administration of idebenone requires high doses of the compound to achieve pharmacologically efficacious plasma levels in the body. Said high doses can result in unwanted side effects such as diarrhea.

The nature of series [3]: Pharmacokinetics of idebenone after oromucosal (oral wafer) vs. oral (gavage) administration, three way cross-over study. The format is in vivo, female Beagle dogs. The note with it: oral administration by gavage vs. oral-mucosal application. The method, then:
Plasma levels of idebenone were studied after the administration of two different thin film formulations (oral wafers) administered via the oromucosal route and compared to the profile obtained when idebenone is dosed by the oral route (gavage) in a micro-emulsion. The doses used in this study were 30 mg oromucosal (oral wafer A, suspension type), 15 mg oromucosal (oral wafer B, solid solution type) and 300 mg oral (TPGS/Miglyol microemulsion administered by oral gavage). The study was a three way cross-over study with one week wash-out between administrations. Formulations were administered to female Beagle dogs under fasted conditions. The pharmacokinetic exposure of free (unconjugated) idebenone and its total metabolites (total idebenone, total QS10, total QS6, and total QS4) was determined for each formulation.
Blood samples were collected at several time points over 6 hours after administration. Concentrations of idebenone in plasma were measured by HPLC-MS/MS and pharmacokinetic parameters were calculated.
For this, idebenone was separated and quantified by HPLC-MS/MS: For HPLC, a SYNERGI™ 4μ MAX-RP (50×2 mm) column (Phenomenex. Schlieren, Switzerland) was used. Column temperature: 50° C. […]
Once separated, idebenone was quantified by ESI-MS/MS (API 4000, Perkin-Elmer-Europe BV, Rotkreuz, Switzerland) in positive mode. […]

In the case of `COC1=C(OC)C(=O)C(CCCCCCCCCCO)=C(C)C1=O` [idebenone, 2,3-dimethoxy-5-methyl-6-(10-hydroxydecyl)-1,4-benzoquinone], the “treatment emergent adverse events compared to placebo” value in series [1] was “no treatment emergent adverse events except some gastrointestinal irritations as well as a slight increase in orthopedic events”. In addition, the “idebenone metabolized during its first passage through the liver” value in series [2] was “more than 98%”. The “metabolic spectrum of idebenone” value in series [3] is listed as “comparable”.
